In patent publication EP0603240B1, “SAFENING HERBICIDAL PYRAZOLYLSULFONYLUREAS” (priority 1991, dated 1993):

Columns and labels:
Assay type in all cases: in vivo
corn [1] = assay: Example 7, Procedure II: Herbicide No. 1 + metolachlor (No. 12) with antidotes
Method in brief: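 Herbicide plus antidote, applied in acetone, mixed into silt loam top soil used to cover corn seed beds, with untreated and herbicide-only controls. After incorporation, containers got overhead irrigation equal to 0.6 cm rainfall, then sub-irrigation in greenhouse. Percent injury scored; antidote efficacy is injury difference; duplicate averages.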

[2] = system: velvetleaf (Abutilon theophrasti); assay: as above
Protocol: (§1) Containers were filled and compacted with a fumigated silt loam top soil to a depth of about 1.3 cm from the top of the container. A first container was designated as an untreated control, a second container was designated as a herbicide control, and a third container was designated as a herbicide + antidote test container. Each of the containers was seeded with a crop species. A measured amount of herbicide dispersed or dissolved in acetone was applied to a measured quantity of soil. To this same quantity of soil treated with herbicide, there was added a measured amount of antidote dispersed or dissolved in acetone. The quantity of soil treated with the herbicide and antidote was thoroughly mixed to incorporate the herbicide and antidote in the soil uniformly. The seed bed in the third container of soil was covered with the soil treated with the herbicide and antidote and the container was leveled. For each test series, the seed beds of the first and second containers were likewise covered by soil layers. the cover layer of the first container was not treated with herbicide or antidote.
(§2) The containers were then placed on a bench in a greenhouse and sub-irrigated as required for the duration of the test. […] Plant response is measured in terms of percent injury. Antidote efficacy is indicated as the difference in plant injury by the herbicide(s) without the antidote and with the antidote.
(§3) This procedure is the same as Procedure I, but modified in the manner that after incorporation of the chemicals (herbicide and antidote) the containers with the covered seedbed were treated with an initial overhead irrigation equivalent to 0.6 cm rainfall, then subsequently sub-irrigated as required on greenhouse benches.
(§4) In the series of greenhouse tests described below, for routine screening purposes the herbicide/antidote compositions were tested in crop/weed combinations involving corn as the crop and either or both of the weeds barnyardgrass (Echinochloa crusgalli), a monocotyledonous weed, and velvetleaf (Abutilon theophrasti), a dicotyledonous weed. In the tables below, these weeds are indicated by the symbols "BYG" and "VL", respectively.
(§5) In this example, Procedure II described above was followed. The data from the tests in this example is shown in Table 6 and represents averages of duplicate replications.
(§6) The tests in this example followed the same procedure and antidotes used in Example 6. However, Herbicide No. 12 (metolachlor) was used as the co-herbicide with Herbicide No. 1.

[3] = system: barnyardgrass (Echinochloa crusgalli); assay: as above
Protocol: as §1, §2, §3, §4, §5, §6

[4] = system: velvetleaf (Abutilon theophrasti); assay: Example 19, Procedure II: Herbicide No. 1 + ERADICANE EXTRA with added antidotes
Protocol: as §1, §2, §3, §4
(§7) In the test reported in this example, the herbicidal composition was similar to that used in Example 16 in that Herbicide No. 1 was combined with EPTC (Herbicide No. 4) as a co-herbicide and the antidotes included Nos. 1, 2, 7, 13 and 15. However, in this test the EPTC was introduced as a formulation of ERADICANE (EPTC + the antidote R-25788, i.e., Antidote No. 1) at an application rate of 8.96 kg/ha. Thus, in this test two antidotes were present, viz. R-25788 and one of the auxilliary antidotes, No. 2, 13 and 15.
(§8) The test reported in this example was performed in the same manner and with the same antidotes used in Example 18, the only difference being the substitution of the commercial herbicidal product ERADICANE® EXTRA for ERADICANE®. ERADICANE EXTRA is a formulation containing both an antidote, i.e., R-29148 (Antidote No. 5 herein), and an extender, dietholate.

[5] = system: barnyardgrass (Echinochloa crusgalli); assay: as above
Protocol: as §1, §2, §3, §4, §7, §8

corn [6] = assay: Example 18, Procedure II: Herbicide No. 1 + ERADICANE (EPTC + R-25788) with auxiliary antidotes
Protocol: as §1, §2, §3, §7
Test procedures were those of Procedure II above.

[7] = system: velvetleaf (Abutilon theophrasti); assay: Example 11, Procedure II: Herbicide No. 1 + metazachlor (No. 14) with antidotes
Protocol: as §1, §2, §3, §4
(§9) In this example, yet another α-chloroacetanilide co-herbicide, metazachlor (Herbicide No. 14) was combined with Herbicide No. 1 for investigation of the effect of various safeners on that composition. Metazachlor is the active ingredient in the commercial herbicide BUTISAN® S, used here as a 500 g/L formulation.

[8] = system: barnyardgrass (Echinochloa crusgalli); assay: as above
Protocol: as §1, §2, §3, §4, §9

[9] = Herbicide No.1 0.14 + No.12 3.36 kg/ha + antidote 2.24 kg/ha
[10] = Herbicide No.1 0.14 + No.12 3.36 kg/ha + antidote 8.96 kg/ha
[11] = Herbicide No.1 0.56 + No.12 3.36 kg/ha + antidote 2.24 kg/ha
[12] = Herbicide No.1 0.56 + No.12 3.36 kg/ha + antidote 8.96 kg/ha
[13] = Herbicide No.1 0.56 kg/ha + ERADICANE EXTRA 8.96 kg/ha, antidote 2.24 kg/ha
[14] = Herbicide No.1 0.56 kg/ha + ERADICANE EXTRA 8.96 kg/ha, antidote 8.96 kg/ha
[15] = Herbicide No.1 1.12 kg/ha + ERADICANE EXTRA 8.96 kg/ha, antidote 2.24 kg/ha
[16] = Herbicide No.1 1.12 kg/ha + ERADICANE EXTRA 8.96 kg/ha, antidote 8.96 kg/ha
[17] = Herbicide No.1 0.56 kg/ha + Herbicide No.14 3.36 kg/ha, antidote rate 2.24 kg/ha
[18] = Herbicide No.1 0.56 kg/ha + Herbicide No.14 3.36 kg/ha, antidote rate 8.96 kg/ha
[19] = Herbicide No.1 1.12 kg/ha + Herbicide No.14 3.36 kg/ha, antidote rate 2.24 kg/ha
[20] = Herbicide No.1 1.12 kg/ha + Herbicide No.14 3.36 kg/ha, antidote rate 8.96 kg/ha

With C=CCN(CC=C)C(=O)C(Cl)Cl [compound 1] the “% Injury Corn” value (corn [1]; [9]) was 0%, the “% Injury Corn” value (corn [1]; [10]) was 0% and the “% Injury Corn” value (corn [1]; [11]) was 0%. The “% Injury Corn” value (corn [1]; [12]) was 10%, the “% Injury VL” value [2, 9] was 70% and the “% Injury VL” value [2, 10] was 75%. For the same compound, the “% Injury VL” value [2, 11] was 85%, the “% Injury VL” value [2, 12] was 80% and the “% Injury BYG” value [3, 9] was 100%. The “% Injury BYG” value [3, 10] was 100%, the “% Injury BYG” value [3, 11] was 100% and the “% Injury BYG” value [3, 12] was 100%. For the same compound, the “% Injury VL” value [4, 13] was 70%, the “% Injury VL” value [4, 14] was 75% and the “% Injury VL” value [4, 15] was 70%. The “% Injury VL” value [4, 16] was 85%, the “% Injury BYG” value [5, 13] was 90% and the “% Injury BYG” value [5, 14] was 90%. The “% Injury BYG” value [5, 15] was 90%, the “% Injury BYG” value [5, 16] was 95% and the “% Injury Corn” value (corn [6]; Herbicide No.1 0.56 kg/ha + ERADICANE 8.96 kg/ha, antidote 2.24 kg/ha) was 30%. For the same compound, the “% Injury Corn” value (corn [6]; Herbicide No.1 0.56 kg/ha + ERADICANE 8.96 kg/ha, antidote 8.96 kg/ha) was 25%, the “% Injury Corn” value (corn [6]; Herbicide No.1 1.12 kg/ha + ERADICANE 8.96 kg/ha, antidote 2.24 kg/ha) was 35% and the “% Injury Corn” value (corn [6]; Herbicide No.1 1.12 kg/ha + ERADICANE 8.96 kg/ha, antidote 8.96 kg/ha) was 25%. The “% Injury VL” value [7, 17] was 80%, the “% Injury VL” value [7, 18] was 90% and the “% Injury VL” value [7, 19] was 85%. The “% Injury VL” value [7, 20] was 80%, the “% Injury BYG” value [8, 17] was 99% and the “% Injury BYG” value [8, 18] was 100%. For the same compound, the “% Injury BYG” value [8, 19] was 99% and the “% Injury BYG” value [8, 20] was 100%.
